# In the Bradley open melting point set (2014):
row,SMILES,melting point [°C]
1,N#Cc1ccc(Oc2ccnc3ccccc23)cc1C#N [4-(Quinolin-4-yloxy)phthalonitrile],175
2,O=Cc1ccc(CO)o1 [5-hydroxymethyl-2-furaldehyde],34
3,CCSC(SCC)=C1CCCC(=C(SCC)SCC)C1=C(C#N)C#N,101
4,"CC(O)CC(C)(C)O (centres undefined) [2-methyl-2,4-pentanediol]",-40
5,COc1ccc(-c2csc(/C(C#N)=N/Nc3ccc(C)cc3)n2)cc1,152
6,CC(=O)/C(C)=N\O [(3Z)-3-(Hydroxyimino)butan-2-one],75
7,"O=[N+]([O-])c1cc(C(F)(F)F)cc([N+](=O)[O-])c1Cl [2-Chloro-1,3-dinitro-5-(trifluoromethyl)benzene]",57
8,"COc1ccc(C(=O)Cc2ccccc2)cc1OC [1-(3,4-Dimethoxyphenyl)-2-phenylethanone]",73
9,CC(C)(C)OC(=O)NCCCC[C@H](NC(=O)OCC1c2ccccc2-c2ccccc21)C(=O)O,132
10,"Nc1ccc(Cl)c(Cl)c1 [3,4-Dichloroaniline]",72
11,CN(C)c1ccc(C=C/C(=N\Nc2ccccc2)c2ccccc2)cc1,128
12,"[2H]c1c([2H])c([2H])c(-c2c([2H])c([2H])c(-c3c([2H])c([2H])c([2H])c([2H])c3[2H])c([2H])c2[2H])c([2H])c1[2H] [(~2~H_14_)-1,1':4',1''-Terphenyl]",213
13,CCCCc1ccc(B(O)O)cc1 [4-n-butylbenzeneboronic acid],105
14,"Clc1ccc(Cl)c(I)c1 [1,4-dichloro-2-iodobenzene]",21
15,"C1=CCCC=CCC1 [1,5-cyclooctadiene]",-69
16,O=C(O)C1C(C(=O)O)C2(Cl)C(Cl)=C(Cl)C1(Cl)C2(Cl)Cl (centres undefined),240
17,COc1ccc(B(O)O)c(C)c1 [4-methoxy-2-methylbenzeneboronic acid],191
18,"Brc1ccc(Br)cc1 [1,4-dibromobenzene]",88
19,"ICCCCI [1,4-diiodobutane]",6
20,CCC(C)c1ccccc1O (centres undefined) [2-sec-Butylphenol],12
21,Cc1ccc(Cc2ccccc2)cc1 [4-benzyltoluene],5
22,"Clc1cc(Cl)cc(Cl)c1 [1,3,5-Trichlorobenzene]",64
23,C=Cc1ccccc1B(O)O [2-vinylbenzeneboronic acid],106

row,SMILES,melting point [°C]
1,Cc1cc(Br)cc(Cl)c1N [4-bromo-2-chloro-6-methylaniline],39
2,"Clc1cccc(Cl)c1Cl [1,2,3-Trichlorobenzene]",53
3,O=[N+]([O-])c1cc[n+]([O-])c2ccccc12 [4-nitroquinoline n-oxide],155
4,COc1cc(C)c2c(c1)CC/C(=C\c1ccccc1)C2=O,97
5,"OCC(F)(F)C(F)(F)CO [2,2,3,3-tetrafluoro-1,4-butanediol]",84
6,O=C(O)CCCCBr [5-bromovaleric acid],40
7,Cc1ccc(C(=O)OC2CC(C#N)OC2OC(=O)c2ccc(C)cc2)cc1 (centres undefined),111
8,CC(C)(C)C1CCC(=O)CC1 [4-tert-butylcyclohexanone],49
9,CCCC(=O)Nc1ccc(OCC(O)CNC(C)C)c(C(C)=O)c1 (centres undefined) [Acebutolol],121
10,FC(F)(F)C(F)(F)C(F)(F)C(F)(F)C(F)(F)C(F)(F)C(F)(F)C(F)(F)Br [1-bromoperfluorooctane],6
11,Cc1ccc(C(=O)c2ccccc2)cc1 [(4-Methylphenyl)(phenyl)methanone],57
12,CC(=O)Nc1ccccc1 [Acetanilide],114
13,C=CCC [1-butene],-185
14,OB(O)c1ccnc(Cl)c1 [2-chloropyridine-4-boronic acid],162
15,O=C(O)c1cc([N+](=O)[O-])ccc1Br [2-bromo-5-nitrobenzoic acid],180
16,Cc1c(N)cccc1Cl [3-chloro-2-methylaniline],2
17,"OCc1cccc(CO)c1 [1,3-benzenedimethanol]",58
18,COc1cccc(O)c1 [3-methoxyphenol],-18
19,CC(=O)Oc1ccc(C(=O)O)cc1 [4-acetoxybenzoic_acid],194
20,"OB(O)c1cc(F)c(F)cc1F [2,4,5-trifluorobenzeneboronic acid]",100
21,"OC1CC2=C(CC=CC2)CC1O (centres undefined) [1,2,3,4,5,8-hexahydronaphthalene-2,3-diol]",121
22,N#CC(Cl)(Cl)Cl [Trichloroacetonitrile],-42
23,"Nc1cccc(N)n1 [2,6-diaminopyridine]",122

row,SMILES,melting point [°C]
1,Oc1cccc2[nH]nnc12 [4-hydroxy-1h-benzotriazole],222
2,Cc1ccc(F)cc1B(O)O [5-fluoro-2-methylbenzeneboronic acid],149
3,O=Cc1ccc(O)cc1 [4-hydroxybenzaldehyde],118
4,"S=C=Nc1ccc(Cl)c(Cl)c1Cl [2,3,4-trichlorophenyl isothiocyanate]",70
5,CCC#CCCCC [3-octyne],-104
6,"Oc1ccc(Br)cc1Br [2,4-dibromophenol]",40
7,Oc1c(Br)c(Br)c(Br)c(Br)c1Br [Pentabromophenol],230
8,"OC(C(F)(F)F)C(F)(F)F [1,1,1,3,3,3-Hexafluoropropan-2-ol]",-3
9,O=C(O)/C(=C/c1ccc([N+](=O)[O-])cc1)c1ccccc1 [(E)-2-phenyl-3-(4-nitrophenyl)propenoic acid],216
10,CC(=O)Nc1ccccc1C(C)C [2'-isopropylacetanilide],73
11,"O=C(O)c1cc(Cl)c(O)c(Cl)c1 [3,5-dichloro-4-hydroxybenzoic acid]",268
12,O=C4\C=C3/[C@]([C@H]2CC[C@]1([C@@H](CC[C@@]1(O)C)[C@@H]2CC3)C)(C)CC4 [methyltestosterone],163
13,O=C(CCl)c1ccccc1 [2-Chloro-1-phenylethanone],55
14,"Nc1ccc(N)cc1 [1,4-phenylenediamine]",142
15,COC(=O)C12C=CC(CC1)C1C(=O)OC(=O)C12 (centres undefined),117
16,OB(O)c1ccc(Br)cc1 [4-bromobenzeneboronic acid],284
17,"O=Cc1cc(Br)cc(Br)c1 [3,5-dibromobenzaldehyde]",91
18,c1cc2c3c(cccc3c1)CC2 [acenaphthene],95
19,"CC(=O)C(=Cc1ccc(-c2ccccc2[N+](=O)[O-])o1)C(C)=O [3-{[5-(2-nitrophenyl)-2-furyl]methylene}pentane-2,4-dione]",128
20,COc1ccc(B(O)O)cc1 [4-methoxybenzeneboronic acid],205
21,CCC1(c2ccccc2)C(=O)NC(=O)N(C)C1=O (centres undefined) [Methylphenobarbital],176

# The next lines start with the values.
row,melting point [°C],SMILES
1,94,N#Cc1ccc2c(c1)OCO2 [Piperonylonitrile]
2,-88,C/C=C/CCCCC [trans-2-octene]
3,85,"COC(=O)c1cc(OC)c(OC)c(OC)c1 [methyl 3,4,5-trimethoxybenzoate]"
4,154,CC(C)C[C@H](NC(=O)OCC1c2ccccc2-c2ccccc21)C(=O)O [N-fmoc-L-leucine]
5,135,CC(=O)Oc1ccccc1C(=O)O [acetylsalicylic acid]
6,-75,CC(C)=CCC/C(C)=C/CC/C(C)=C/CC/C=C(\C)CC/C=C(\C)CCC=C(C)C [squalene]
7,140,CC1=C(C(=O)O)N2C(=O)[C@@H](NC(=O)[C@H](N)C3=CCC=CC3)[C@H]2SC1 [Cefradine]
8,26,C=Cc1ccc(N)cc1 [p-vinylaniline]
9,225,C[C@]12CCC(=O)C=C1CC[C@@H]1[C@@H]2C(=O)C[C@@]2(C)[C@H]1CC[C@]2(O)C(=O)CO [Cortisone]
10,134,O=C(O)CCCCCCCCC(=O)O [Sebacic acid]
11,57,O=C1c2ccccc2C(=O)N1CCCCCCBr [N-(6-bromohexyl)phthalimide]
12,171,NNC(=O)c1ccncc1 [isoniazid]
13,72,COC(=O)NN [methyl carbazate]
14,165,O=c1ccn([C@@H]2O[C@@H](CO)[C@H](O)[C@H]2O)c(=O)[nH]1 [Uridine]
15,161,CC(C)C1=CC2=CC[C@@H]3[C@](C)(CCC[C@@]3(C)C(=O)O)[C@H]2CC1 [abietic acid]
16,281,O=c1[nH]cc(F)c(=O)[nH]1 [Fluorouracil]

row,melting point [°C],SMILES
1,147,COC(=O)N/C=C/c1ccccc1[N+](=O)[O-] [methyl [(E)-2-(2-nitrophenyl)ethenyl]carbamate]
2,31,Oc1cccc(Br)c1 [m-bromophenol]
3,64.5,CCOC(=O)c1cc(C)n(-c2ccc(F)cc2)c1C [OSM-S-03]
4,136,O=C1C(CCS(=O)c2ccccc2)C(=O)N(c2ccccc2)N1c1ccccc1 (centres undefined) [Sulfinpyrazone]
5,48.5,Cc1ccc(C)n1-c1ccc(F)cc1 [OSM-S-01]
6,82,CCOC(=O)C1=CC(C)N=N1 (centres undefined) [Ethyl 5-methyl-1H-pyrazole-3-carboxylate]
7,15,CCCCCCCCCCCCC=O [tridecanal]
8,173,"O=C(NNc1ccccc1)NNc1ccccc1 [N'',N'''-Diphenylcarbonohydrazide]"
9,202,Nc1ccc(S(=O)(=O)Nc2nccs2)cc1 [sulfathiazole]
10,122,COC(=O)c1ccc2cc(Br)ccc2c1 [methyl 6-bromo-2-naphthoate]
11,12,Cc1cccc(O)c1 [m-cresol]
12,-23,C=C(C)c1ccccc1 [alpha-methylstyrene]
13,17,CCCCCCCC(=O)O [octanoic_acid]
14,170,CC(=O)Nc1ccc(O)cc1 [N-(4-Hydroxyphenyl)acetamide]
15,-113,CCCSC [methyl n-propyl sulfide]
16,182,COc1ccc(NS(=O)(=O)c2ccc(N)cc2)nn1 [sulfamethoxypyridazine]
